Experiment [1] concerns ROPN1 or ROPN1B over-expressing MDA-MB231 tumor cells. The experiment can be described thus: IFNg production of TCR T cells co-cultured with ROPN1 or ROPN1B over-expressing tumor cells (endogenously processed epitope). It counts as cell-based, human. The note with it: Table 4; responding TCRs / TCRs tested, T cells transduced with TCR specific for the epitope. How it is done: In a first series of in vitro tests, TCR-transduced T cells (6×10^4/well in a 96-well plate) were co-cultured with ROPN1 or ROPN1B over-expressing MDA-MB231 tumor cells (2×10^4/well) in a total volume of 200 μl of T cell medium for 24 h at 37° C. The ROPN1 or ROPN1B over-expressing tumor cells were generated as described under ‘generation and culture of cell lines and T cells’ (see above), and tumor cells were pre-treated 48 h with IFN-Y before co-culture with T cells. […] T cells that fulfilled these criteria (examples in FIG. 10A) were assessed for their sensitivity towards their cognate epitope. […] EC50 values were calculated using GraphPad Prism 5 software.

Experiment [2] has as its system CD8+ T cells. The experiment can be described thus: peptide:MHC multimer/tetramer staining of enriched T cells (flow cytometry). The experiment is classed as cell-based, human. The note with it: for pMHC staining % pMHC+ CD8+ in CD3+: Table 4, enriched T cells after enrichment cycles. As to the method:
Enrichment of epitope-specific CD8 T cells was performed according to the protocol described by Butler et al., Clin Cancer Res.;13(6):1857-1867 (2007), doi:10.1158/1078-0432, but included the following amendments. CD8+ T lymphocytes were collected from PBMCs by magnetic-activated cell sorting (MACS) according to the CD8 isolation kit (Miltenyi Biotec). CD8+ T cells with >95% purity were subsequently cultured in T cell medium supplemented with IL-2 (36 IU/mL; but no gentamycin) for 1 day, after which expansion cycles started. K562ABC cells (kindly provided by prof. Bruce Levine, University of Pennsylvania, PA) were loaded with 10 μg/ml ROPN1 and/or ROPN1B peptide and incubated for 5 h at RT in serum-free medium, after which cells were washed and fixed with 0,1% paraformaldehyde. After washing, K562ABC cells were suspended at 0.1×10^6/mL and co-cultured with T cells in a 1:20 ratio. IL-2 (36 IU/mL) and IL-15 ([…]) were added at days 1 and 3 days after start of co-culture, and after 6 days, T cells were counted, suspended at 2×10^6/mL and rested for 1 day, after which the next cycle commenced (this schedule continued up to 4 or 5 cycles). Following 4 and 5 cycles, T cells were stained with pMHC multimers (HLA*0201/MLN, Immudex, Copenhagen, Denmark). pMHC-PE were pre-incubated at RT for 10 min followed by incubation with 7AAD, anti-CD3-FITC and anti-CD8-APC for 20 min. Cells were fixed with 1% paraformaldehyde and TCR expression was measured with flow cytometry and analyzed using FlowJoX software. FIG. 4A schematically depicts the procedure to enrich epitope-specific T cells, and obtainthe corresponding TCR genes.
Following enrichment, T cells were tested for ROPN1 and/or ROPN1B epitope-specific IFNY production. To this end, T2 cells (1×10^6/mL) were loaded with peptide (20 ng/mL) for 30 min, after which T cells (1×10^5) were cultured in a 1:1 ratio with T2 cells in a round bottom 96-wells plate for 18 h. Supernatant was collected and IFN-γ production was measured with an Enzyme-linked immunosorbent assay (ELISA, BioLegend) according to the manufacturer's protocol (FIG. 9A). T2 cells loaded with an irrelevant peptide were included as a negative control. T cell IFNg production was considered epitope-specific in case levels exceeded 200 pg/ml, and levels were minimally twice as high as for irrelevant peptide (see for full listing of criteria, FIG. 8). T cells that fulfilled these criteria were stained with peptide:MHC (pMHC) tetramers to determine the frequency of epitope-specific T cells. Empty Loadable HLA Tetramers (5 μL, Tetramer shop, Kongens Lyngby, Denmark) were incubated with 0.5 μL peptide (200 μM) for 30 min on ice. Complexes of pMHC were centrifuged (3300 g, 5 min) and incubated with 0.1×10^6 T cells for 15 min at 37° C. in the dark. Next, an antibody cocktail containing CD3-FITC (1:30, BD) and CD8-APC (1:300, eBiosciences) was added and incubated for an additional 30 min at 4° C. in the dark. Finally, T cells were washed twice and fixed with 1% paraformaldehyde (PFA), after which events were acquired with FACSCelesta (BD) and analyzed using FlowJoX software.

The target in experiment [3] is peptide:MHC (Homo sapiens, UniProt P04439, D140Y/D185E/D98H/E176V/E277Q/G131W/G231S/I119V/I121R/I166T/I218V/N151K/N90K/P208A/P217A/Q86G/Q94H/R138H/R169H). The experiment is described as follows: TCR gene transfer into healthy donor T cells, surface expression by pMHC staining. It counts as cell-based. The note with it: Table 4; T cells transduced with TCR specific for the epitope.
Text: (§1) Identified TCRα and TCRβ genes were codon optimized (GeneArt, Regensburg, Germany) and cloned into the pMP71 vector (a kind gift of prof. Wolfgang Uckert, MDC, Berlin, Germany) using a TCRβ-2A-TCRα cassette that was flanked by NotI and EcoRI restriction sites. Upon activation with anti-CD3 mAb OKT3, PBMCs from healthy donors were transduced with TCR-encoding retroviruses (pMP71) or empty vector that were produced by a co-culture of 293T and Phoenix-Ampho packaging cells, as described previously in Lamers et al., Cancer Gene Ther.;13(5):503-509 (2006), doi:10.1038/sj.cgt.7700916, and Straetemans G, Clin Dev Immunol, 2012. Staining for surface-expressed TCR transgenes was performed as described above (FIG. 5A,B).
as §1, with “TCRα” for “Identified TCRα”, “TCR13-2A-TCRα” for “TCRβ-2A-TCRα”, “2012.” for “2012. Staining for surface-expressed TCR transgenes was performed as described above (FIG. 5A,B).”
Staining for surface-expressed TCR transgenes was performed as described above. […] Note that for a single epitope (EVI; SEQ ID NO:24) pMHC complexes were insensitive to detect TCR T cells and replaced by stainings with antibodies directed against TCR-Vb7.1 and CD137. The expression of CD137 was measured following 48 h stimulation with EVI epitope-loaded BSM cells, and threshold for inclusion again being expression in more than 5% of cells in the CD3-positive cell population in at least 2 donors.

Peptide text beside a SMILES is read from it.

In the case of `CC[C@H](C)[C@H](NC(=O)[C@H](Cc1ccc(O)cc1)NC(=O)[C@@H](NC(=O)[C@H](Cc1ccc(O)cc1)NC(=O)[C@H](CC(C)C)NC(=O)[C@@H](N)Cc1ccccc1)[C@@H](C)O)C(=O)N[C@@H](C)C(=O)N[C@@H](CCC(=O)O)C(=O)N[C@H](C(=O)O)C(C)C` (H-FLYTYIAEV-OH; N-terminus and C-terminus assumed), in experiment [1], the “T cell responses observed (IFNg) against endogenously presented epitope” value (“T cell responses observed (IFNg)” below) is on record as 1/1 responses. In addition, the “pMHC staining % pMHC+ CD8+ in CD3+” value in experiment [2] was 1.34%. Moreover, the “Surface expression % pMHC+ in CD3+” value in experiment [3] worked out at 5.02%.
For the compound `CSCC[C@H](NC(=O)[C@H](CCC(N)=O)NC(=O)[C@H](C)N)C(=O)N[C@@H](Cc1c[nH]c2ccccc12)C(=O)N[C@@H](CCCCN)C(=O)N[C@H](C(=O)N[C@H](C(=O)N[C@@H](CC(N)=O)C(=O)N[C@@H](CC(C)C)C(=O)O)C(C)C)C(C)C` (H-AQMWKVVNL-OH; N-terminus and C-terminus assumed), the “T cell responses observed (IFNg)” value in experiment [1] was 0/1 responses. For the same compound, the “pMHC staining % pMHC+ CD8+ in CD3+” value in experiment [2] is 2.58%. Also, the “Surface expression % pMHC+ in CD3+” value in experiment [3] is 49.7%.
`CC[C@H](C)[C@H](NC(=O)[C@H](Cc1ccc(O)cc1)NC(=O)[C@H](CC(N)=O)NC(=O)[C@H](CC(C)C)NC(=O)[C@@H](N)CCSC)C(=O)N[C@@H](CCC(=O)O)C(=O)N[C@@H](CCC(N)=O)C(=O)N[C@@H](CCC(=O)O)C(=O)N[C@H](C(=O)O)C(C)C` (H-MLNYIEQEV-OH; N-terminus and C-terminus assumed): the “T cell responses observed (IFNg)” value in experiment [1] was 0/2 responses. In experiment [2], the “pMHC staining % pMHC+ CD8+ in CD3+” value was found to be 13.3%. Further, the “enriched T cells binding MLN/HLA-A2 complexes” value is 20% in experiment [2] (after 4 cycles of co-culture with epitope-loaded aAPC) and 62% in experiment [2] (after 5 cycles of co-culture with epitope-loaded aAPC). In addition, the “Surface expression % pMHC+ in CD3+” value in experiment [3] was found to be 49.7%.
For `CC[C@H](C)[C@H](NC(=O)[C@H](Cc1ccc(O)cc1)NC(=O)[C@@H](NC(=O)[C@H](Cc1ccc(O)cc1)NC(=O)[C@H](CC(C)C)NC(=O)[C@@H](N)Cc1ccccc1)[C@@H](C)O)C(=O)N[C@@H](C)C(=O)N[C@@H](CCCCN)C(=O)N[C@H](C(=O)O)C(C)C` (H-FLYTYIAKV-OH; N-terminus and C-terminus assumed), in experiment [1], the “T cell responses observed (IFNg)” value is on record as 1/1 responses. Further, the “pMHC staining % pMHC+ CD8+ in CD3+” value in experiment [2] was 2.76%. In addition, the “Surface expression % pMHC+ in CD3+” value in experiment [3] was 33.2%.

These data come from patent US20240131155A1, “T CELLS FOR USE IN THERAPY” (Erasmus University Medical Center Rotterdam, priority 2021, published 2024).
